Laboratory results: publication PMC10654576, “Isothermal chemical denaturation assay for monitoring protein stability and inhibitor interactions” (Scientific Reports, 2023)
“Also recorded” adds a separate entry of the source. One block for each molecule: values may come before it.

Key:
[1] = target: T1, KRAS^G12V (Homo sapiens, UniProt P01116, G12V); assay: FRET-Probe isothermal chemical denaturation (ICD) assay, KRAS^G12V; format: binding; details: for S/B ratio, denaturation with and without GTP: 1 µM GTP
T1 construct: Monomer (2-188); host or cells: E. coli
Procedure: (§1) All isothermal chemical denaturation (ICD) assays were conducted in triplicates at RT using a single-step protocol with 25 µL final volume. Sample protein and ligand were added in 5 µL in a buffer (10 mM HEPES (pH 7.5), 10 mM NaCl, (v/v) 0.01% Brij 30) without denaturant. FRET-Probe (0.5 nM) was added to the assay buffer supplemented with chemical denaturant, urea (0–5 M), ethanol (0–30%) or 1-propanol (0–50%). Additionally, 0.2 mM EDTA was used in combination with alcohols.
(§2) In all ICD protein assays, time-resolved Förster resonance energy transfer (TR-FRET) signal was monitored kinetically at multiple time points during 150 min incubation. In all assays with protein binding ligands, 30 min preincubation prior denaturant addition was performed. In acid induced denaturation assay, GTP (0–2 µM) and NADH (0–50 µM) were titrated with KRAS^G12V and MDH, respectively. 1-propanol (30–50%) ICD assays were also performed for MDH in the presence of NADH (0–50 µM) and (20%) for KRAS^G12V using GTP (0–10 µM). […] Additionally, urea was tested with 1 µM GTP with KRAS^G12V.

[2] = target: T2, malate dehydrogenase (MDH) (Sus scrofa, UniProt P00346); assay: FRET-Probe thermal shift assay (TSA), MDH with NADH; format: binding; details: for Tm of MDH with NADH: 25 nM MDH
T2 construct: purchased Sigma-Aldrich (St. Louis, MO, USA)
T2 sequence (P00346 25-338): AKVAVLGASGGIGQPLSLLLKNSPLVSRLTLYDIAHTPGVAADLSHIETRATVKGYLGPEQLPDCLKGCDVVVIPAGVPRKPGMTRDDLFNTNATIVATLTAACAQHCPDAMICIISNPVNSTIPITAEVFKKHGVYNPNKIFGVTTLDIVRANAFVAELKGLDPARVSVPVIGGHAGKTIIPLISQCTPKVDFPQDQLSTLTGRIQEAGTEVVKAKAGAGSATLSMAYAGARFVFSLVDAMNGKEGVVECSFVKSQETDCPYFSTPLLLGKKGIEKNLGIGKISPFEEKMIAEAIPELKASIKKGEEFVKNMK
Procedure: All FRET-Probe TSA were conducted in triplicates using a single-step protocol, by adding the sample protein in 5 µL and FRET-Probe (0.5 nM) in 20 µL volumes. All concentrations are reported in a 25 µL final volume. Assays were performed in an assay buffer containing 10 mM HEPES (pH 7.5) supplemented with 0.001% (v/v) Triton X-100.

[3] = target: MDH; parameters: method as in PMID 225321; details: MDH/NADH interaction; cited from earlier work
[4] = target: T3, MDH (Sus scrofa, UniProt P00346); assay: FRET-Probe isothermal chemical denaturation (ICD) assay, MDH; format: binding; details: 25 nM MDH
T3 construct: purchased Sigma-Aldrich (St. Louis, MO, USA)
T3 sequence (P00346 25-338): T2 sequence (P00346 25-338)
Procedure: as §1, §2

Structure (SMILES): Nc1ncnc2c1ncn2[C@@H]1O[C@H](COP(=O)(O)OP(=O)(O)OP(=O)(O)O)[C@@H](O)[C@H]1O [ATP]
TR-FRET signal level compared with protein alone ([1]; 50 nM KRAS^G12V, pH 5, 2 and 10 µM ATP): no change of signal level; also recorded: in the same range

S/B ratio, denaturation with and without GTP ([1]; 50 nM KRAS^G12V, 1 M urea, 60 min): 15.1
S/B ratio, denaturation with and without GTP ([1]; 50 nM KRAS^G12V, 2 M urea, 60 min): 20.3
EC50 ([1]; 50 nM KRAS^G12V, pH 5 denaturation buffer, 30 min): 4.5 ± 1.9 nM
EC50 ([1]; 50 nM KRAS^G12V, pH 5 denaturation buffer, 60 min): 2.6 ± 0.7 nM
EC50 ([1]; 50 nM KRAS^G12V, pH 5 denaturation buffer, 90 min): 3.5 ± 0.1 nM
EC50 ([1]; 50 nM KRAS^G12V, pH 5 denaturation buffer, 120 min): 4.6 ± 0.3 nM
EC50 ([1]; KRAS^G12V, 20% 1-propanol, 30 min): 3.6 ± 0.5 nM
EC50 ([1]; KRAS^G12V, 20% 1-propanol, 60 min): 3.8 ± 0.4 nM
EC50 ([1]; KRAS^G12V, 20% 1-propanol, 90 min): 5.2 ± 1.2 nM
EC50 ([1]; KRAS^G12V, 20% 1-propanol, 120 min): 5.2 ± 0.7 nM
Structure (SMILES): Nc1nc2c(ncn2[C@@H]2O[C@H](COP(=O)(O)OP(=O)(O)OP(=O)(O)O)[C@@H](O)[C@H]2O)c(=O)[nH]1 [GTP, guanosine-5'-triphosphate]

Tm of MDH with NADH ([2]; 5 µM NADH): 47.9 ± 0.6 °C
Tm of MDH with NADH ([2]; 50 µM NADH): 51.7 ± 0.2 °C
Δ Tm of MDH ([2]; 5 µM NADH): 1.2 °C
Δ Tm of MDH ([2]; 50 µM NADH): 5.0 °C
EC50 ([4]; 30–50% 1-propanol, 60 min incubation): 29000 to 38000 nM
EC50 ([4]; pH 5 denaturation buffer, RT, 90 min incubation): 4700 ± 800 nM
ligand-induced stabilization of MDH ([4]; pH 5, 5 and 50 µM NADH, RT): clear ligand-induced stabilization
Structure (SMILES): NC(=O)C1=CN([C@@H]2O[C@H](COP(=O)(O)OP(=O)(O)OC[C@H]3O[C@@H](n4cnc5c(N)ncnc54)[C@H](O)[C@@H]3O)[C@@H](O)[C@H]2O)C=CC1 [NADH, reduced nicotinamide adenine dinucleotide]
Kd [3]: 3800 nM
